According to patent US8138351B2, “Treatment of duchenne muscular dystrophy” (Summit Corporation PLC, priority 2007, dated 2012):

System: Utrophin A promoter linked to a luciferase reporter gene (H2K/mdx/Utro A reporter cell line)
Assay: Luciferase reporter assay (murine H2K cells)
Format: cell-based, mouse
Settings: final concentration of 10 μM, 48 hrs
Description: 1. Luciferase Reporter Assay (Murine […] Cells) The cell line used for the screen is an immortalized mdx mouse H2K cell line that has been stably transfected with a plasmid containing ≈5 kb fragment of the Utrophin A promoter including the first untranslated exon linked to a luciferase reporter gene (see FIG. 1). Under conditions of low temperature and interferon containing media, the cells remain as myoblasts. These are plated into 96 well plates and cultured in the presence of compound for three days. The level of luciferase is then determined by cell lysis and reading of the light output from the expressed luciferase gene utilising a plate luminometer. The H2K/mdx/Utro A Reporter Cell Line Maintenance The H2K/mdx/Utro A reporter cell line was passaged twice a week until ≦30% confluent. The cells were grown at 33° C. in the presence of 10% CO2. To remove the myoblasts for platting, they were incubated with Trypsin/EDTA until the monolayer started to detach. […] Cells were then lysed in situ following the manufacture's protocols (Promega Steady-Glo Luciferase Assay System (E2520), then counted for 10 seconds using a plate luminometer (Victor1420). Biological activity was assessed using the luciferase reporter assay in murine H2K cells, and is classified as follows: […]

With `CCS(=O)(=O)c1ccc2oc(-c3ccc4ccccc4c3)nc2c1` [5-(ethylsulfonyl)-2-(naphthalen-2-yl)benzo[d]oxazole] the “Biological activity, luciferase reporter assay, relative to control” value was “+++ (Between 301% and 400% relative to control)”.
